The values that follow are results of earlier work, collected in publication PMC8244136, “Integrin αvβ6-targeted MR molecular imaging of breast cancer in a xenograft mouse model” (Cancer Imaging, 2021).

For orientation: IC50 means the concentration that inhibits the measured activity by half.

The test system of series [1] is αvβ5. The note with it: selectivity against other integrins. The source says:
(§1) Because of the significance of integrin αvβ6 in tumorigenesis and tumor progression, many pioneering experimental studies have focused on αvβ6-targeted ligands, including peptides and non-peptide inhibitors. More recently, a novel sub-nanomolar αvβ6-specific ligand, the nonapeptide cyclo [FRGDLAFp(NMe)K] (referred to as cFK-9) was identified, which is characterized by the RXDLXXL motif sequence.

Series [2] relates to integrin αvβ6. The note with it: read-out: αvβ6 binding affinity IC50.
Excerpt: as §1

Series [3] has as its system αvβ3. The note with it: selectivity against other integrins.
Excerpt: as §1

The subject of series [4] is αIIbβ3. The conditions noted are these: selectivity against other integrins.
Excerpt: as §1

Series [5] deals with α5β1. The note with it: selectivity against other integrins.
Excerpt: as §1

Excerpt in series [6]: as §1

With “cyclo [FRGDLAFp(NMe)K] (head to tail) [cFK-9, sub-nanomolar αvβ6-specific ligand, cyclic RGD nonapeptide with RXDLXXL motif]”, the IC50 in series [1] is greater than 1000 nM; in series [2], 0.26 nM; in series [3], 632 nM; in series [4], greater than 1000 nM; in series [5], 73 nM. The “stability in human plasma” value in series [6] was “very stable”.
